Data: publication PMC6220303 (EMBO Molecular Medicine, 2018)

Assays:
rat = test system: rat; parameters: method as in May et al, 2011; Fielden et al, 2015; settings: ref May et al, 2011; Fielden et al, 2015; cited from earlier work
APP‐transgenic mice = test system: APP‐transgenic mice; parameters: method as in Beckmann et al, 2016; Villarreal et al, 2017; settings: ref Beckmann et al, 2016; Villarreal et al, 2017; cited from earlier work
C57/BL6 mice = experiment: Hair depigmentation study, 8 weeks dosing; assay type: in vivo, mouse; settings: for % Aβ40 in brain relative to vehicle alone: steady state
Description: Compounds were either mixed in feed or given as a suspension orally. […] Vehicle or compounds were given orally in a volume of 10 ml/kg once daily (mornings) for 8 weeks. Vehicle: 0.1% Tween‐80 in 0.5% methylcellulose in water. […] The vehicle group was treated with food pellets containing no compound. The β1 antibody was dosed 0.5 mg/kg body weight, once weekly intraperitoneally, diluted in 90 nM NaCl, 50 nM Tris pH 7.1.

CatD = test system: CatD; parameters: method as in Fielden et al, 2015; settings: ref Fielden et al, 2015; cited from earlier work

C[C@@]1(c2cc(-c3cncnc3)c(F)cc2F)CCSC(N)=N1 [LY2811376]
retinal pathology in the rat (rat): retinal degeneration

CN1C(=N)N[C@](C)(c2cc(NC(=O)c3ccc(F)cn3)ccc2F)CS1(=O)=O [verubecestat]
CMH events (APP‐transgenic mice): No CMH events were observed

Cc1cc(C#N)cnc1C(=O)Nc1ccc(F)c([C@]2(C)CO[C@@](C)(C(F)(F)F)C(N)=N2)c1 [NB‐360]
start of hair depigmentation (C57/BL6 mice; C57/BL6 mice): 2–3 weeks | % Aβ40 in brain relative to vehicle alone (C57/BL6 mice; Dose 9 mg/kg): 66% | % Aβ40 in brain relative to vehicle alone (C57/BL6 mice; Dose 45 mg/kg): 32% | hair depigmentation / change in hair color (C57/BL6 mice; male C57/BL6 mice, 8 weeks oral once daily): obvious hair depigmentation in all mice | CMH events (APP‐transgenic mice): No CMH events were observed

CC1(C#Cc2cnc3c(c2)[C@]2(COC(N)=N2)c2cc(-c4cccnc4F)ccc2O3)COC1 [AMG‐8718]
CatD selectivity in vitro (CatD): > 3,000 fold | retinal pathology in the rat (rat): retinal degeneration
